The assay relates to HCT116 human colorectal cancer cells. The assay can be described thus: Intracellular dNTP pools of HCT116 cells after treatment with thymidylate synthase inhibitors, measured with the fluorescence-based dNTP assay. Particulars: for Intracellular dGTP concentration / Intracellular dCTP concentration / Intracellular dATP concentration / Intracellular dTTP concentration: 4 h, Mean ± SD; for Intracellular dGTP concentration: control 4.7 ± 0.8; for Intracellular dCTP concentration: control 10.5 ± 0.2; for Intracellular dATP concentration: control 13.6 ± 1.17; for Intracellular dTTP concentration: control 20.4 ± 0.77; for dGTP after treatment: depletion from 4.7; for dTTP after treatment: vehicle-treated cells 20.4; for dCTP levels after treatment: reduction from 10.5.

[1] abbreviates: HCT116, 2.5 μmol/L pemetrexed, 4 hours.

Molecules are shown by their SMILES.

Method: Reaction mixtures contained primer, probe and template at an equimolar final concentration of 0.4 mmol/L. MgCl2 was included at a final concentration of 2 mmol/L. Non-limiting dNTPs were included in the reaction mix in excess at a final concentration of 100 mmol/L (the dNTP to be assayed was excluded). AmpliTaq Gold DNA polymerase was added at 0.875 U/reaction, 2.5 μl of 10×PCR buffer 2 added and nuclease-free ddH2O added to a final reaction volume of 25 μl. For analysis of cell extracts, the volume of ddH20 was modified to accommodate the addition of 2.5 μl of cell extract. For dUTP determination from cell extracts, the volume of ddH20 was further modified to accommodate an additional 1 μl of dUTPase (10 ng/μl). Thermal profiling and fluorescence detection was performed using the ‘isothermal’ program on board an Applied Biosystems 7500 Real-Time PCR System. For analysis of dNTPs, the thermal profile consisted of a 10 min 95° C. step to ‘hot-start’ the Taq polymerase and a primer extension time of up to 30 min at 60° C. depending on the application. Raw fluorescence spectra for 6-FAM was measured using filter A at specified time intervals (typically every 5 min) to follow assay progression using Sequence Detection Software (SDS Version 1.4, Applied Biosystems) and exported and analyzed in Microsoft Excel (Microsoft, Redmond Wash.) and Prism (GraphPad Software, La Jolla Calif.). In all cases, fluorescence values for blank reactions (limiting dNTP omitted) were subtracted to give normalized fluorescence units (NFU) to account for background probe fluorescence.
The human colorectal cancer cell line HCT116 was purchased from American Type Culture Collection (Lockville, Md.). HCT116 cells were maintained in McCoy's 5A media (Invitrogen) supplemented with 10% fetal bovine serum (Lonza, Walkersville, Md.) with penicillin/streptomycin, sodium pyruvate and L-glutamine (Invitrogen, Carlsbad, Calif.). For pemetrexed analyses, cells were incubated in folate-depleted RPMI supplemented with 25 nmol/L 5-Formyltetrahydrofolate, 10% fetal bovine serum (Lonza), penicillin/streptomycin, sodium pyruvate and L-glutamine for 24 h prior to treatment. Cells were maintained in a humidified Form a incubator (Form a, Waltham, Mass.) at 37° C. with 5% CO2 and routinely screened for mycoplasma using the MycoALERT detection kit (Lonza) and verified mycoplasma negative.
The relationship between assay response and known concentrations of the analytes (dNTPs) was analyzed by a 5-point (minimum) calibration curve. Calibration curves were obtained by assaying serial dilutions of dNTP standards diluted with ultra-pure nuclease-free water to the desired concentration and evaluated using regression coefficients (R^2). Samples were assayed in triplicate, and experiments were repeated on three independent occasions as appropriate. The limit of detection (LOD) was defined as the mean value of the negative blind controls plus 3 standard deviations (SD) of the mean, i.e. the concentration with a signal to noise ratio of 3:1. The limit of quantification (LOQ) was defined as the mean value of the negative controls plus 5 SD determined from three independent assays (signal to noise ratio of 5:1). Coefficient of variation (% CV) values were calculated from the cumulative mean and SD of replicates. Inter-assay % CVs were calculated from 3 independent experiments performed on different days. The intra-assay % CV represents the mean±SD % CV obtained from assaying replicate samples within 3 identical yet independent assays performed on the same day. The accuracy was assessed by comparing the nominal dNTP concentrations with the corresponding calculated values based on the calibration curve and presented as a percentage.

As to `Nc1nc2[nH]cc(CCc3ccc(C(=O)N[C@@H](CCC(=O)O)C(=O)O)cc3)c2c(=O)[nH]1` [PTX, pemetrexed], under “HCT116, 2.5 μmol/L PTX”, the “Intracellular dGTP concentration” value is listed as 1.14 ± 0.3 pmoles × 10^6 cells, the “Intracellular dCTP concentration” value is 11.1 ± 2.5 pmoles × 10^6 cells, the “Intracellular dATP concentration” value is recorded as 13.4 ± 1.68 pmoles × 10^6 cells and the “Intracellular dTTP concentration” value was 3.93 ± 0.8 pmoles × 10^6 cells. In addition, under setting [1], the dGTP after treatment was 1.1 pmoles per 10^6 cells and the dTTP after treatment amounted to 3.9 pmoles per 10^6 cells.

As for `O=c1[nH]cc(F)c(=O)[nH]1` [5-FU, 5-fluorouracil], for the setting “HCT116, 5 μmol/L 5-FU”, the “Intracellular dGTP concentration” value amounted to 0.88 ± 0.1 pmoles × 10^6 cells, the “Intracellular dCTP concentration” value stood at 8.7 ± 0.24 pmoles × 10^6 cells, the “Intracellular dATP concentration” value is on record as 13.9 ± 0.33 pmoles × 10^6 cells and the “Intracellular dTTP concentration” value is 1.64 ± 0.16 pmoles × 10^6 cells. Also, where the note is “HCT116, 5 μmol/L 5-FU, 4 hours”, the dGTP after treatment came to 0.9 pmoles per 10^6 cells, the “dCTP levels after treatment” value is listed as 8.7 pmoles per 10^6 and the dTTP after treatment stood at 1.6 pmoles per 10^6 cells.

In the case of `O=c1[nH]c(=O)n([C@H]2C[C@H](O)[C@@H](CO)O2)cc1F` [FUdR, fluorodeoxyuridine], where the note is “HCT116, 1 μmol/L FUdR”, the “Intracellular dGTP concentration” value is 0.43 ± 0.11 pmoles × 10^6 cells, the “Intracellular dCTP concentration” value is 8 ± 0.04 pmoles × 10^6 cells, the “Intracellular dATP concentration” value is 14.5 ± 0.13 pmoles × 10^6 cells and the “Intracellular dTTP concentration” value worked out at 4.5 ± 0.71 pmoles × 10^6 cells. For the setting “HCT116, 1 μmol/L FUdR, 4 hours”, the “Depletion of dTTP versus vehicle-treated cells” value is over 4 fold, the dGTP after treatment was 0.43 pmoles per 10^6 cells, the “dCTP levels after treatment” value stood at 8 pmoles per 10^6 and the dTTP after treatment is 4.5 pmoles per 10^6 cells.

The values are drawn from patent US8815509B2, “Fluorescence-based assay for the rapid detection and quantification of deoxyribonucleoside triphosphates” (University of Southern California, priority 2011, dated 2014).
